Measurements reported in US8604048B2, “Pyridocarbazole type compounds and applications thereof” (Centre National de la Recherche Scientifique, priority 2009, dated 2013).

Legend:
[1] = test system: HeLa cells; test: Cell growth test (MTT), HeLa; type: cell-based; conditions: Homo sapiens, MTT test after 48 h, read-out: IC50 (concentration necessary to inhibit 50% of cell growth)
Description: (§1) The cell growth tests are carried out in transparent 96-well microplates (Greiner) after having seeded 100 μl/well of a cell solution having 2·10^5 cells/ml to 5·10^5 cells/ml (depending on the cell lines). After incubating for 24 h at 37° C. with 5% CO2, the culture medium is removed and replaced with solutions of the molecule to be tested at various concentrations. The cells are incubated with these molecules for an additional 48 h at 37° C. with 5% CO2. After elimination of the medium, the cells are washed with blank RPMI (Gibco, Invitrogen) then incubated with 3-(4,5-dimethylthiazol-2-yl)-2,5-diphenyltetrazolium bromide or MTT (0.5 mg/ml final concentration) for 4 h at 37° C. with 5% CO2. MTT (Sigma Aldrich) makes it possible to estimate the viability of the cells by measuring the activity of a mitochondrial enzyme. Indeed, in living cells, mitochondrial dehydrogenases are capable of cleaving the tetrazolium ring, thus leading to the formation of formazan crystals that are insoluble in an aqueous medium. These crystals are dissolved with the addition of a solubilizing solution (isopropanol, 10% Triton X100, 0.1 N HCl). After stirring, the absorbance is measured at 570 nm using the FLUOstar OPTIMA microplate reader. […]
(§2) The viability of the cells was evaluated using an MTT test after 48 h of exposure with various concentrations of molecules (from 100 μM to 0.001 μM). […]

[2] = test system: 786-O cells; test: Cell growth test (MTT), 786-O; type: cell-based; conditions: Homo sapiens, 786-0, MTT test after 48 h, read-out: IC50 (concentration necessary to inhibit 50% of cell growth)
Description: as §1, §2

[3] = test system: NCI-H460 cells; test: Cell growth test (MTT), NCI-H460; type: cell-based; conditions: Homo sapiens; NCI-H460, MTT test after 48 h; read-out: IC50 (concentration necessary to inhibit 50% of cell growth)
Description: as §1, §2

[4] = test system: MES-SA cells; test: Cell growth test (MTT), MES-SA; type: cell-based; conditions: Homo sapiens, MTT test after 48 h, read-out: IC50 (concentration necessary to inhibit 50% of cell growth)
Description: as §1, §2

[5] = test system: MES-SA DX5 cells; test: Cell growth test (MTT), MES-SA DX5; type: cell-based; conditions: Homo sapiens; MES-SA DX5 (multi-drug resistant, P-glycoprotein), MTT test after 48 h; read-out: IC50 (concentration necessary to inhibit 50% of cell growth)
Description: as §1, §2

[6] = test system: actin network of HeLa cells; test: Stability of the actin network to a depolymerization induced by latrunculin B; type: cell-based, Human; conditions: HeLa cells, confocal microscope
Description: 7. a step of analysis of the effect of the compound to be tested on the actin network, via incubation of HeLa cells with the compound to be tested. […] When the actin network is stabilized, the latrunculin-induced depolymerization of the actin network is limited.
The cells are grown on glass coverslips and incubated as for the tubulin staining. After elimination of the medium, the cells are washed with warm PBS then fixed, by addition of a solution of PBS/3.7% formaldehyde for 30 minutes at 37° C. The cells are washed with PBS then permeabilized with a solution of PBS/0.2% Triton X100 for 15 minutes at room temperature. After another washing with PBS, the cells are incubated with a solution of PBS/1% BSA for 30 minutes at room temperature. The cells are then incubated with phalloidin (0.165 μM final concentration) labelled with Alexa Fluor® 488 (Molecular Probes, Invitrogen) for 20 minutes at room temperature. The cells are washed a final time with PBS then dehydrated with pure ethanol. Finally, the cells are fixed to slides using a Fluorsave™ mounting solution.
8) Test for the Action on the Actin Cytoskeleton: Protocol for Evaluating, in Cells, the Stability of the Actin Network to a Depolymerization Induced by Latrunculin B
3 days before the experiment, glass coverslips are deposited under sterile conditions in 24-well microplates. In each well, HeLa cells (15 000 cells per well) in the exponential growth phase are seeded in 500 μl of RPMI medium.
PBS (phosphate buffered saline, ref. P4417, Sigma), PBS/1% BSA (bovine serum albumin, Ref. A3059, Sigma), aliquots of 15 ml, stored at −20° C.; PBS/0.2% Triton X100 (Ref. T8787, Sigma); PBS/0.01% Tween® 20 (Ref. P9916, Sigma); PBS/0.3% BSA/0.02% NaN3 (Ref. for the NaN3: 6688, Merck), aliquots of 15 ml stored at −20° C. Phalloidin A488, (Ref. A12379, Invitrogen). L4: rabbit anti-detyrosinated-tubulin polyclonal antibody (cf. Fonrose et al., Cancer Res., […], 67:3371-3378). Anti-rabbit antibody coupled to Cyanine 3 (Ref. 111.165.144, Jackson Laboratories). […]

[7] = test system: purified tubulin; test: In vitro assembly of purified tubulin; type: biochemical; conditions: tubulin 1 mg/ml; Compound 1 at 25, 50, 100 μM
Description: FIG. 5 compares the effects of the Compound 1 of the invention with the effect of paclitaxel (Taxol®) on the assembly of the tubulin purified in vitro. Purified tubulin (1 mg/ml) is incubated in PEM buffer in the presence of GTP (1 mM), MgCl2 (5 mM), DAPI (10 μM) at 37° C. The effect of Compound 1 of the invention at various concentrations (×25 μM, ⊚ 50 μM and Δ 100 μM) is compared to that of paclitaxel (Taxol®) (▪) and of DMSO ( ? );
In order to know whether Compound 1 of the invention exerts its stabilizing effect via a direct action on tubulin, such as paclitaxel does, or by means an effector, its effect on the in vitro assembly of tubulin in microtubules has been analyzed. The first experiments were carried out on purified tubulin (1 mg/ml).

Row | IC50 [1] [µM] | IC50 [2] [µM] | IC50 [3] [µM] | Compound | IC50 [4] [µM] | IC50 [5] [µM] | Protection of the actin network from depolymerization by latrunculin B [6] | Assembly of purified tubulin in vitro [7]
1 | 3.05 | 3.34 | 1.52 | Cc1c2cc[nH]c(=O)c2c(C)c2c1[nH]c1ccc(OCc3ccccc3)cc12 [Compound 3, 9-benzyloxy-5,11-dimethyl-2H,6H-pyrido[4,3-b]carbazol-1-one] | 33.9 | 13.9 |  | 
2 |  |  |  | CC(=O)O[C@H]1C(=O)[C@@]2(C)[C@H]([C@H](OC(=O)c3ccccc3)[C@]3(O)C[C@H](OC(=O)[C@H](O)[C@@H](NC(=O)c4ccccc4)c4ccccc4)C(C)=C1C3(C)C)[C@]1(OC(C)=O)CO[C@@H]1C[C@@H]2O [paclitaxel, reference compound] |  |  | Neither DMSO nor paclitaxel (Taxol®) are able to induce such a protective effect | can induce the assembly of tubulin
